Biological target: human cannabinoid CB2 receptor (Homo sapiens, UniProt P34972)
Assay: Cannabinoid CB2 receptor agonist activity (yeast reporter assay, FDGlu fluorescence)
Assay type: cell-based
Conditions: for EC50: EC50 value at the cloned human cannabinoid CB2 receptor; for Emax: read-out: efficacy value (Emax relative to HU210) at the cloned human cannabinoid CB2 receptor
Description: Determination of Cannabinoid CB2 Receptor Agonist Activity
The cannabinoid CB2 receptor agonist activity of the compounds of formula (I)-(IV) was determined in accordance with the following experimental method.
Yeast (Saccharomyces cerevisiae) cells expressing the human cannabinoid CB2 receptor were generated by integration of an expression cassette into the ura3 chromosomal locus of yeast strain MMY23. This cassette consisted of DNA sequence encoding the human CB2 receptor flanked by the yeast GPD promoter to the 5′ end of CB2 and a yeast transcriptional terminator sequence to the 3′ end of CB2. MMY23 expresses a yeast/mammalian chimeric G-protein alpha subunit in which the C-terminal 5 amino acids of Gpa1 are replaced with the C-terminal 5 amino acids of human Gαi3 (as described in Brown et al. (2000), Yeast 16:11-22). Cells were grown at 30° C. in liquid Synthetic Complete (SC) yeast media (Guthrie and Fink (1991), Methods in Enzymology, Vol. 194) lacking uracil, tryptophan, adenine and leucine to late logarithmic phase (approximately 6 OD600/ml).
Agonists were prepared as 10 mM stocks in DMSO. […] Agonist solutions in DMSO (1% final assay volume) were transferred into black, clear bottom, microtitre plates from NUNC (96- or 384-well). Cells were suspended at a density of 0.2 OD600/ml in SC media lacking histidine, uracil, tryptophan, adenine and leucine and supplemented with 10 mM 3-aminotriazole, 0.1M sodium phosphate pH 7.0, and […] fluorescein di-β-D-glucopyranoside (FDGlu). This mixture (50 ul per well for 384-well plates, 200 ul per well for 96-well plates) was added to agonist in the assay plates (Multidrop 384, Labsystems). After incubation at 30° C. for 24 hours, fluorescence resulting from degradation of FDGlu to fluorescein due to exoglucanase, an endogenous yeast enzyme produced during agonist-stimulated cell growth, was determined using a Spectrofluor microtitre plate reader (Tecan; excitation wavelength: 485 nm; emission wavelength: 535 nm). Fluorescence was plotted against compound concentration and iteratively curve fitted using a four parameter fit to generate a concentration effect value. Efficacy (Emax) was calculated from the equation
where Max[compound X] and Min[compound X] are the fitted maximum and minimum respectively from the concentration effect curve for compound X, and Max[HU210] and Min[HU210] are the fitted maximum and minimum respectively from the concentration effect curve for (6aR,10aR)-3-(1,1′-Dimethylheptyl)-6a,7,10,10a-tetrahydro-1-hydroxy-6,6-dimethyl-6H-dibenzo[b,d]pyran-9-methanol (HU210; available from Tocris). Equieffective molar ratio (EMR) values were calculated from the equation
Where EC50 [compound X] is the EC50 of compound X and EC50 [HU210] is the EC50 of HU210.

Chain of human cannabinoid CB2 receptor (P34972 whole entry): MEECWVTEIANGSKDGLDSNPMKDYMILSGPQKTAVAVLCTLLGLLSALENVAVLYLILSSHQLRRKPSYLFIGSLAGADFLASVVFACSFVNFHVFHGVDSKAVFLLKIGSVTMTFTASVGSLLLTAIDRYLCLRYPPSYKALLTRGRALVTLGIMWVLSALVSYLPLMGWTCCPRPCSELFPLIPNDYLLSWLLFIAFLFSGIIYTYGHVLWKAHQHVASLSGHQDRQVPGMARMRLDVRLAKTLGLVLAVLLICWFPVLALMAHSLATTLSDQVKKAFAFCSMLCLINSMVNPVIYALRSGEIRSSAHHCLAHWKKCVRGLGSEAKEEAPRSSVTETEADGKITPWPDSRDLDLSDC

Row | activity in the CB2 assay described herein | Structure (SMILES) | EC50 | Emax
1 | inactive | O=C(NCc1ccccc1Br)c1cnc(Nc2cccc(Cl)c2)nc1C(F)(F)F [2-(3-Chloro-phenylamino)-4-trifluoromethyl-pyrimidine-5-carboxylic acid 2-bromo-benzylamide] | – | –
2 | inactive | COc1ccccc1CNC(=O)c1cnc(Nc2cccc(Cl)c2)nc1C(F)(F)F [2-(3-Chloro-phenylamino)-4-trifluoromethyl-pyrimidine-5-carboxylic acid 2-methoxy-benzylamide] | – | –
3 | inactive | CN(Cc1ccccc1)C(=O)c1cnc(Nc2ccc(C(C)(C)C)cc2)nc1C(F)(F)F [2-(4-tert-butyl-phenylamino)-4-trifluoromethyl-pyrimidine-5-carboxylic acid benzyl-methyl-amide] | – | –
4 | inactive | CC(C)(C)c1ccc(Nc2ncc(C(=O)NCc3ccccc3)c(C(F)(F)F)n2)cc1 [2-(4-tert-butyl-phenylamino)-4-trifluoromethyl-pyrimidine-5-carboxylic acid benzylamide] | – | –
5 | – | O=C(c1cnc(Nc2cccc(Cl)c2)nc1C(F)(F)F)N1CCCCC1 [Example 1, 1-[2-(3-Chlorophenylamino)-4-trifluoromethylpyrimidin-5-yl]-1-piperidin-1-ylmethanone] | 20 to 300 nM | > 50%
6 | – | O=C(NCC1CCCC1)c1cnc(Nc2cccc(Cl)c2)nc1C(F)(F)F [Example 2, 2-(3-Chlorophenylamino)-4-trifluoromethylpyrimidine-5-carboxylic acid cyclopentylmethyl-amide] | 20 to 300 nM | > 50%
7 | – | O=C(c1cnc(Nc2cccc(Cl)c2)nc1C(F)(F)F)N1CCOCC1 [Example 3, 1-[2-(3-Chlorophenylamino)-4-trifluoromethylpyrimidin-5-yl]-1-morpholin-4-yl-methanone] | 20 to 300 nM | > 50%
8 | – | O=C(NCC1CCCCC1)c1cnc(Nc2cccc(Cl)c2)nc1C(F)(F)F [Example 4, 2-(3-Chlorophenylamino)-4-trifluoromethylpyrimidine-5-carboxylic acid cyclohexylmethylamide] | 20 to 300 nM | > 50%
9 | – | O=C(NCC1CCCCC1)c1cnc(Nc2ccccc2)nc1C(F)(F)F [Example 5] | – | > 50%
10 | – | O=C(c1cnc(Nc2cccc(Cl)c2Cl)nc1C(F)(F)F)N1CCOCC1 [Example 6, 1-[2-(2,3-Dichlorophenylamino)-4-trifluoromethylpyrimidin-5-yl]-1-morpholin-4-yl-methanone] | 20 to 300 nM | > 50%
11 | – | O=C(c1cnc(Nc2ccc(Cl)cc2Cl)nc1C(F)(F)F)N1CCOCC1 [Example 7, 1-[2-(2,4-Dichlorophenylamino)-4-trifluoromethylpyrimidin-5-yl]-1-morpholin-4-yl-methanone] | 20 to 300 nM | > 50%
12 | – | O=C(c1cnc(Nc2cc(Cl)ccc2Cl)nc1C(F)(F)F)N1CCOCC1 [Example 9, 1-[2-(2,5-Dichlorophenylamino)-4-trifluoromethylpyrimidin-5-yl]-1-morpholin-4-yl-methanone] | 20 to 300 nM | > 50%
13 | – | O=C(c1cnc(Nc2cccc(F)c2)nc1C(F)(F)F)N1CCOCC1 [Example 10, 1-[2-(3-Fluorophenylamino)-4-trifluoromethylpyrimidin-5-yl]-1-morpholin-4-yl-methanone] | 20 to 300 nM | > 50%
14 | – | O=C(c1cnc(Nc2cccc(Br)c2)nc1C(F)(F)F)N1CCOCC1 [Example 11, 1-[2-(3-Bromophenylamino)-4-trifluoromethylpyrimidin-5-yl]-1-morpholin-4-yl-methanone] | 20 to 300 nM | > 50%
15 | – | O=C(c1cnc(Nc2cccc(Br)c2)nc1C(F)(F)F)N1CCCCC1 [Example 12] | – | > 50%
16 | – | O=C(c1cnc(Nc2cc(Cl)cc(Cl)c2)nc1C(F)(F)F)N1CCOCC1 [Example 13, 1-[2-(3,5-Dichlorophenylamino)-4-trifluoromethylpyrimidin-5-yl]-1-morpholin-4-yl-methanone] | 20 to 300 nM | > 50%

Row | activity in the CB2 assay described herein | Structure (SMILES) | EC50 | Emax
17 | – | O=C(NC1CCCC1)c1cnc(Nc2cccc(Cl)c2)nc1C(F)(F)F [Example 14, 2-(3-Chlorophenylamino)-4-trifluoromethylpyrimidine-5-carboxylic acid cyclopentylamide] | 20 to 300 nM | > 50%
18 | – | O=C(NCC1CCCCC1)c1cnc(Nc2cccc(Cl)c2Cl)nc1C(F)(F)F [Example 15, 2-(2,3-Dichlorophenylamino)-4-trifluoromethylpyrimidine-5-carboxylic acid cyclohexylmethyl-amide] | 20 to 300 nM | > 50%
19 | – | O=C(NCC1CCCCC1)c1cnc(Nc2ccc(Cl)cc2Cl)nc1C(F)(F)F [Example 16, 2-(2,4-Dichlorophenylamino)-4-trifluoromethylpyrimidine-5-carboxylic acid cyclohexylmethyl-amide] | 20 to 300 nM | > 50%
20 | – | O=C(NCC1CCCCC1)c1cnc(Nc2ccc(Cl)c(Cl)c2)nc1C(F)(F)F [Example 17, 2-(3,4-Dichlorophenylamino)-4-trifluoromethylpyrimidine-5-carboxylic acid cyclohexylmethyl-amide] | 20 to 300 nM | > 50%
21 | – | O=C(NCC1CCCCC1)c1cnc(Nc2cc(Cl)cc(Cl)c2)nc1C(F)(F)F [Example 18, 2-(3,5-Dichlorophenylamino)-4-trifluoromethylprimidine-5-carboxylic acid cyclohexylmethyl-amide] | 20 to 300 nM | > 50%
22 | – | O=C(NCC1CCCCC1)c1cnc(Nc2cccc(Br)c2)nc1C(F)(F)F [Example 20, 2-(3-Bromophenylamino)-4-trifluoromethylpyrimidine-5-carboxylic acid cyclohexylmethyl-amide] | 20 to 300 nM | > 50%
23 | – | O=C(NCC1CCCCC1)c1cnc(Nc2c(Cl)cccc2Cl)nc1C(F)(F)F [Example 21, 2-(2,6-Dichlorophenylamino)-4-trifluoromethylpyrimidine-5-carboxylic acid cyclohexylmethyl-amide] | 20 to 300 nM | > 50%
24 | – | O=C(NCC1CCOCC1)c1cnc(Nc2cccc(Cl)c2)nc1C(F)(F)F [Example 22, 2-(3-Chlorophenylamino)-4-trifluoromethylpyrimidine-5-carboxylic acid (tetrahydro-pyran-4-ylmethyl)-amide] | 20 to 300 nM | > 50%
25 | – | O=C(NC1CCC1)c1cnc(Nc2cccc(Cl)c2)nc1C(F)(F)F [Example 23, 2-(3-Chlorophenylamino)-4-trifluoromethylpyrimidine-5-carboxylic acid cyclobutyl-amide] | 20 to 300 nM | > 50%
26 | – | O=C(c1cnc(Nc2ccccc2)nc1C(F)(F)F)N1CCCCC1 [Example 24, 1-(2-Phenylamino-4-trifluoromethyl-pyrimidin-5-yl)-1-piperidin-1-yl-methanone] | 300 to 1000 nM | > 50%
27 | – | O=C(c1cnc(Nc2ccccc2)nc1C(F)(F)F)N1CCOCC1 [Example 25, 1-Morpholin-4-yl-1-(2-phenylamino-4-trifluoromethyl-pyrimidin-5-yl)-methanone] | 300 to 1000 nM | > 50%
28 | – | N#CCNC(=O)c1cnc(Nc2cccc(Cl)c2)nc1C(F)(F)F [Example 26, 2-(3-Chloro-phenylamino)-4-trifluoromethyl-pyrimidine-5-carboxylic acid cyanomethyl-amide] | 300 to 1000 nM | > 50%
29 | – | CC(C)(C)CCNC(=O)c1cnc(Nc2cccc(Cl)c2)nc1C(F)(F)F [Example 27, 2-(3-Chloro-phenylamino)-4-trifluoromethyl-pyrimidine-5-carboxylic acid (3,3-dimethyl-butyl)-amide] | 300 to 1000 nM | > 50%
30 | – | CC(C)(C)CNC(=O)c1cnc(Nc2cccc(Cl)c2)nc1C(F)(F)F [Example 28, 2-(3-Chloro-phenylamino)-4-trifluoromethyl-pyrimidine-5-carboxylic acid (2,2-dimethyl-propyl)-amide] | 300 to 1000 nM | > 50%
31 | – | O=C(NC1CCC1)c1cnc(Nc2cccc(F)c2)nc1C(F)(F)F [Example 29, 2-(3-Fluoro-phenylamino)-4-trifluoromethyl-pyrimidine-5-carboxylic acid cyclobutylamide] | 300 to 1000 nM | > 50%
